Measurements reported in patent US20230049952A1, “METHODS AND COMPOUNDS FOR RESTORING MUTANT P53 FUNCTION” (PMV Pharmaceuticals, Inc., priority 2020, published 2023).
Where two headings read alike, the source gives them in different places. Each block holds one compound with its values, some of them ahead of it.

Assays:
[1] = biological target: T1, OCT2 (Homo sapiens, UniProt O15244); conditions: 2 min/5 μM
T1 sequence (O15244 1-555): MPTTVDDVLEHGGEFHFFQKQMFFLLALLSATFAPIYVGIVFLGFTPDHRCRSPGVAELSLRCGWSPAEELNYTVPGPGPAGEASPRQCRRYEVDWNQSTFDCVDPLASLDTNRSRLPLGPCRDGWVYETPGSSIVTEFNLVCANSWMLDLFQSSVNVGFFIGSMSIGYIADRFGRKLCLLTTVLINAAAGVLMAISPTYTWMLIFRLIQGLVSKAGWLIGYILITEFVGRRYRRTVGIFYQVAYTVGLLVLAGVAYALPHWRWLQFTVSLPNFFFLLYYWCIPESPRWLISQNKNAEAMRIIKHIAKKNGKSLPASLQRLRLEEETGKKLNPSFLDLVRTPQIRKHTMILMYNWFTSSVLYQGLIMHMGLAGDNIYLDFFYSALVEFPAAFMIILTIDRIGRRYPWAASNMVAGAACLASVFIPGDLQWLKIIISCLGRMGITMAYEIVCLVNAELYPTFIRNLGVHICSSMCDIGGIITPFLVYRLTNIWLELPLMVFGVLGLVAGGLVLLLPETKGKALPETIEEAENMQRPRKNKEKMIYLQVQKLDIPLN
Description: All experiments were conducted in duplicate (n=2). The cells were incubated for the indicated time in a humidified incubator (37° C. 5% CO2). […] The uptake incubation was stopped by two washes with ice-cold HBSSg.

[2] = biological target: T2, CYP2C8 (Homo sapiens, UniProt P10632); assay: in vitro; conditions: both, microsomes, pH 7.4
T2 sequence (P10632 1-490): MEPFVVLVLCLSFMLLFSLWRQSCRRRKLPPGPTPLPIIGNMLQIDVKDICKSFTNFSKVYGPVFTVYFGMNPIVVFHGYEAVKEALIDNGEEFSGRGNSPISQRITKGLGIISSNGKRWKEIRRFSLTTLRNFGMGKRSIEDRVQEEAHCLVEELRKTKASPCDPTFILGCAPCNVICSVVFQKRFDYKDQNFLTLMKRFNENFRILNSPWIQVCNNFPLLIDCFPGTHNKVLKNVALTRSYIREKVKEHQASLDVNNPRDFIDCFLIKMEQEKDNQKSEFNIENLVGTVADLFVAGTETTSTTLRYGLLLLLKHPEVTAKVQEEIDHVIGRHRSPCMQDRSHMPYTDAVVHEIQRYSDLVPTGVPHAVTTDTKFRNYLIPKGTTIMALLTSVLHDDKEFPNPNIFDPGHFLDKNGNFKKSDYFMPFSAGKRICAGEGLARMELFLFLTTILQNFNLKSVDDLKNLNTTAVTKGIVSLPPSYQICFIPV

[3] = test system: human hepatocytes; assay: cell viability (MTS) after CYP induction treatment of human hepatocytes; conditions: after CYP1A2 induction treatment
Description: Cell Viability Assay: After the CYP induction treatment and enzyme activity assay, the cells were used for a cell viability assay. The viability of cells, expressed as the percentage of MTS absorbance relative to vehicle control, was measured as described above.

[4] = biological target: CYP2D6 (Homo sapiens, UniProt P10635); assay: CYP inhibition in human liver microsomes; type: in vitro ADME; parameters: from tissue; host or cells: pooled human liver microsomes, 200 donors; conditions: both sexes, pooled human liver microsomes, pH 7.4, HLM, read-out: % of Control Enzyme Activity
Sequence of CYP2D6 (P10635 whole entry): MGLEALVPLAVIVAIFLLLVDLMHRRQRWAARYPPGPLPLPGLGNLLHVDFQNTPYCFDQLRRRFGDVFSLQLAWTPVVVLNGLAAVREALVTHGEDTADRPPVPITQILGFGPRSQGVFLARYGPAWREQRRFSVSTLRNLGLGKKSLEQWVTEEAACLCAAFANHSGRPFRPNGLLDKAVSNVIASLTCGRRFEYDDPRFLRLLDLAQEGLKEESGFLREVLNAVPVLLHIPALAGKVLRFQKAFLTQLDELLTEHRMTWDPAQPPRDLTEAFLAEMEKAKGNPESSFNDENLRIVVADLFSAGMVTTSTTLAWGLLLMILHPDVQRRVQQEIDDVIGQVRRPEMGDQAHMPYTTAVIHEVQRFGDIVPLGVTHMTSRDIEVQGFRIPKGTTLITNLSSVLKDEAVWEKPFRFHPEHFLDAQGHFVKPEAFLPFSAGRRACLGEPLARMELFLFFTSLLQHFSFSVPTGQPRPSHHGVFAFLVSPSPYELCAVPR

[5] = test system: p53 in HCT116; assay: p53 (DO-1) Western blot; type: cell-based, human; conditions: HCT116 + RG7388 50 nM, 24 hr
Description: (§1) Protein samples were quantified using BCA.
(§2) Western blot: For each cell line, 10 μg of total protein were run on a 4-12% Bis-Tris precast gel. The gel was transferred to a nitrocellulose membrane. The membrane was blocked for 1 hour using the Odyssey TBS blocking solution. Membranes were incubated overnight in p53 (p53, DO-1) and actin (beta-actin) primary antibodies. The next day, blots were washed and incubated in either goat anti-mouse for p53 or goat-anti-rabbit for actin secondaries antibodies. Blots were then washed and imaged using an Odyssey CLx imaging system. Bands were quantified using Image Studio software and normalized to the actin control. The p53 or actin levels were then normalized to the NUGC3 band and graphed using Prism.
(§3) Since p53 protein pools are strongly autoregulated by degradation by the transcriptional target MDM2, pools of p53 accumulate to high levels in cells with mutant p53.

[6] = test system: p53 in SJSA1; assay: p53 (DO-1) Western blot; type: cell-based, human; conditions: SJSA1 + RG7388 50 nM, 24 hr
Description: as §1, §2, §3

[7] = biological target: T3, OATP1B1 (Homo sapiens, UniProt Q9Y6L6); assay: uptake transporter inhibition assessment, transfected HEK293; conditions: inhibitor 10 μM
T3 sequence (Q9Y6L6 1-691): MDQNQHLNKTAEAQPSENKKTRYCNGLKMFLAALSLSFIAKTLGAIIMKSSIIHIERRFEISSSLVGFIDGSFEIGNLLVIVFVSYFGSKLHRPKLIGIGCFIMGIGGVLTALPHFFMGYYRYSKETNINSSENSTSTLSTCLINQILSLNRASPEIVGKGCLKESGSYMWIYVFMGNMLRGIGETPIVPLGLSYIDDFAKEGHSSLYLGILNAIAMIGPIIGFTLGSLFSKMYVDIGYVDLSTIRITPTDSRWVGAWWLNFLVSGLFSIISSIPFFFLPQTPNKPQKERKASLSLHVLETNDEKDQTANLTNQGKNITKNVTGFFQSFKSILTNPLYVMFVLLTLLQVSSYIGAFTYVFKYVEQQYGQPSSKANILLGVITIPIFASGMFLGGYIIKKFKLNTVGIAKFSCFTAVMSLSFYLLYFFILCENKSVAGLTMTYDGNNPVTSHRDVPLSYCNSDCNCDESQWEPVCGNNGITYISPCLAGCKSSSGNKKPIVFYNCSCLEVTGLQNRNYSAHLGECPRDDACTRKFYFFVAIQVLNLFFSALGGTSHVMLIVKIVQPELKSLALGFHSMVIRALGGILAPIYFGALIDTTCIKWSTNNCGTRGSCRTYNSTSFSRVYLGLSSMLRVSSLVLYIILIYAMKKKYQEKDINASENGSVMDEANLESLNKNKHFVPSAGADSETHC

[8] = biological target: T4, OATP1B3 (Homo sapiens, UniProt Q9NPD5); assay: as above; conditions: inhibitor 10 μM
T4 sequence (Q9NPD5 1-702): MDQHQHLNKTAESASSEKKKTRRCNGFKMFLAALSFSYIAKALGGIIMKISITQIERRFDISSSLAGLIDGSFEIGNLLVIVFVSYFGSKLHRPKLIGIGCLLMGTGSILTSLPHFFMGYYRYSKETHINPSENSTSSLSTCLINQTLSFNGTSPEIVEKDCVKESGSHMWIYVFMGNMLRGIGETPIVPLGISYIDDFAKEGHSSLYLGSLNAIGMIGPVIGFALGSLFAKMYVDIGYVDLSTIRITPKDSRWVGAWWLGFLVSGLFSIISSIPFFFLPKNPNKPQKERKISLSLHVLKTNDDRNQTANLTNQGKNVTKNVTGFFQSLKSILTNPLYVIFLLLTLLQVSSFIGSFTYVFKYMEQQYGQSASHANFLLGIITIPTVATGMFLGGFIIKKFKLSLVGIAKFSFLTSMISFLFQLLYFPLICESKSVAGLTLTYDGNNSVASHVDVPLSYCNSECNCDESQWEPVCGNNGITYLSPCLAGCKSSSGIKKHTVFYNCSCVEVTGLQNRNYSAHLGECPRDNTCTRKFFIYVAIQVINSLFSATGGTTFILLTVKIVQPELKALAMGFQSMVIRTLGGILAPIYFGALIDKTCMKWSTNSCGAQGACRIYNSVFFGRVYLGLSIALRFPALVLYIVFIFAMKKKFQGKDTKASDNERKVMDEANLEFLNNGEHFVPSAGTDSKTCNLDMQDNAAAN

[9] = test system: CYP enzymes in human liver microsomes; conditions: HLM, probe S-Mephenytoin 25 μM
Description: Pooled HLM were stored at −80° C. until use. […] The reaction was initiated by adding NADPH, followed by incubation at 37° C.
Corrected CLint=Raw CLint−Negative Control CLint; Δ CLint=CLHint(TA+NADPH−Inhibitor)−CLint (TA+NADPH+Inhibitor).

[10] = biological target: CYP2C9 (Homo sapiens, UniProt P11712); assay: CYP inhibition in human liver microsomes; type: in vitro ADME; parameters: from tissue; host or cells: pooled human liver microsomes, 200 donors; conditions: both sexes, pooled human liver microsomes, pH 7.4, HLM, read-out: % of Control Enzyme Activity
Sequence of CYP2C9 (P11712 whole entry): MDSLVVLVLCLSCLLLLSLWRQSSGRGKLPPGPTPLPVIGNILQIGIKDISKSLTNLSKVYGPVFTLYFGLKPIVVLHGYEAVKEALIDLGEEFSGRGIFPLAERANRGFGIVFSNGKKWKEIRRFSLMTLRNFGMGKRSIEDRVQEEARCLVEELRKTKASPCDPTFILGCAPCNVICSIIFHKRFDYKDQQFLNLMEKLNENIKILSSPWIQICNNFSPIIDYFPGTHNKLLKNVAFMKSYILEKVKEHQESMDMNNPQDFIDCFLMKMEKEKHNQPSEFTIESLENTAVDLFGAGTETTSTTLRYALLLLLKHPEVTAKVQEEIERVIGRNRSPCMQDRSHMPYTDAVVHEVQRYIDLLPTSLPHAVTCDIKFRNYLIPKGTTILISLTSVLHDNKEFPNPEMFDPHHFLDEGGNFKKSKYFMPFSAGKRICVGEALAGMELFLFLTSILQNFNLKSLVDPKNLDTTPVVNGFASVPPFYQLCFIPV
Description: The HLMs were stored at −80° C. until use.
Negative (vehicle) controls were conducted without a test article.

[11] = +NADPH −Inhibitor, Maximum Metabolism
[12] = −NADPH −Inhibitor, Negative Control

Structure (SMILES): C[n+]1ccc(-c2ccccc2)cc1 [MPP, MPP+]
Substrate Assessment [1]: Positive (Influx Rate Ratio≥2.0: Positive)
Influx Rate AVG ([1]; OCT2 cells): 403 pmol/minute/mg/protein
Influx Rate Ratio ([1]; OCT2 vs Vector Control): 16.6
Influx Rate AVG ([1]; Vector Control cells): 24.3 pmol/minute/mg/protein

Structure (SMILES): CC(C)(O)c1ccccc1CC[C@@H](SCC1(CC(=O)O)CC1)c1cccc(/C=C/c2ccc3ccc(Cl)cc3n2)c1 [Montelukast, montelukast]
activity at 20 min, 0.123 µM [2]: 54%
activity at 20 min, 0.37 µM [2]: 26.8%
activity at 20 min, 3.33 µM [2]: 4.22%
activity at 20 min, 10 µM [2]: 2.17%

Structure (SMILES): COc1ccc2[nH]c([S+]([O-])Cc3ncc(C)c(OC)c3C)nc2c1 (stereo not shown) [OME]
Formazan Absorbance (n = 3) Mean ([3]; Donor 1, 50 μM): 0.494
Formazan Absorbance (n = 3) Mean ([3]; Donor 2, 50 μM): 0.800
Formazan Absorbance (n = 3) Mean ([3]; Donor 3, 50 μM): 0.433

Structure (SMILES): C=C[C@H]1C[N@@]2CC[C@H]1C[C@@H]2[C@@H](O)c1ccnc2ccc(OC)cc12 [Quinidine, quinidine]
activity at 20 min, 0.123 µM ([4]; 0.123 μM): 30.6%
activity at 20 min, 0.37 µM ([4]; 0.370 μM): 17.7%
activity at 20 min, 3.33 µM ([4]; 3.33 μM): 8.69%
activity at 20 min, 10 µM ([4]; 10.0 μM): 7.28%

Structure (SMILES): COc1cc(C(=O)O)ccc1NC(=O)[C@@H]1N[C@@H](CC(C)(C)C)[C@](C#N)(c2ccc(Cl)cc2F)[C@H]1c1cccc(Cl)c1F [RG7388]
DO1/Actin [5]: 0.065
DO1 band density [5]: 1300
normalized DO1/Actin ([5]; normalized to NUGC3): 0.524
DO1/Actin [6]: 0.008
DO1 band density [6]: 94.5
normalized DO1/Actin ([6]; normalized to NUGC3): 0.068

Percent Inhibition ([7]; probe Atorvastatin ([…])): 94.8
Influx Rate AVG ([7]; probe Atorvastatin ([…]), OATP1B1-transfected HEK cells): 1.12 pmol/minute/mg protein
Influx Rate AVG ([7]; probe Atorvastatin ([…]), Vector Control cells): 0.769 pmol/minute/mg protein
Percent Inhibition ([8]; probe atorvastatin (0.1 μM per TABLE 176)): 94.8
Influx Rate AVG ([8]; probe atorvastatin (0.1 μM per TABLE 176), OATP1B3-transfected HEK cells): 0.991 pmol/minute/mg protein
Influx Rate AVG ([8]; probe atorvastatin (0.1 μM per TABLE 176), Vector Control cells): 0.769 pmol/minute/mg protein
Structure (SMILES): CO[C@H]1/C=C/O[C@@]2(C)Oc3c(C)c([O-])c4c(O)c(cc(O)c4c3C2=O)NC(=O)/C(C)=C\C=C\[C@H](C)[C@H](O)[C@@H](C)[C@@H](O)[C@@H](C)[C@H](OC(C)=O)[C@@H]1C.[Na+] [Rifamycin SV]
Inhibition Potential Classification [7]: Positive (Percent inhibition≥50%: Positive)
Inhibition Potential Classification [8]: Positive (Percent inhibition≥50%: Positive)

Structure (SMILES): CC[C@@]1(c2ccccc2)NC(=O)N(C)C1=O [S-Mephenytoin]
Formation Rate (4′-OH Mephenytoin) [9, 11]: 39.8 pmol/min/mg protein
Measured Metabolite (4′-OH Mephenytoin) [9, 11]: 0.398 µM
Formation Rate (4′-OH Mephenytoin) [9, 12]: 0 pmol/min/mg protein
Measured Metabolite (4′-OH Mephenytoin) [9, 12]: 0 µM

Structure (SMILES): Nc1ccc(S(=O)(=O)Nc2ccnn2-c2ccccc2)cc1 [Sulfaphenazole, sulfaphenazole]
activity at 20 min, 0.123 µM ([10]; 0.123 μM): 76.9%
activity at 20 min, 0.37 µM ([10]; 0.370 μM): 55.4%
activity at 20 min, 3.33 µM ([10]; 3.33 μM): 16.3%
activity at 20 min, 10 µM ([10]; 10.0 μM): 7.69%
